Assay results reported in patent US4197312A, “Alkali metal and alkaline earth metal salts of benzoylacetonitriles” (American Cyanamid Company, priority 1978, dated 1980).

What was measured:
[1] = test system: Adjuvant induced arthritis; assay: Adjuvant induced arthritis in the rat (primary lesion, paw swelling); format: in vivo, rat (Royal Hart, Wistar strain); details: once daily days 0 to 13
Experimental: Adjuvant induced arthritis in the rat
Groups of three Royal Hart, Wistar strain rats weighing 200±10 g. each were injected intradermally in the right hind paw with Freund's adjuvant (dried human tubercle bacilli in a mineral oil vehicle) at a dose of 2 mg./kg. of body weight. The test compounds were administered orally in a 1.5% starch vehicle at various doses once daily on days 0 to 13 post challenge. Control rats were treated in a similar manner, but given only starch vehicle. On the 14th and 21st day post challenge the diameter of the injected paw was measured by micrometer caliper. The volume of inflamed paws were estimated from these measurements and the effects of each compound are expressed as percent inhibition of swelling was compared to controls. Table I records the results of these tests conducted with representative compounds of this invention and known anti-inflammatory agents. The active compounds of this invention suppress the progression of the arthritis and associated joint deterioration.

[2] = test system: arthritic paw swelling; joint and bone deterioration; details: literature (S. Wong et al.; G. R. Bobalick et al.); cited from earlier work

## CC(=O)Oc1ccccc1C(=O)O [Aspirin]
[1]; oral 50 mg./kg.
  (Primary Lesion) % Inhibition of Swelling Day 14: 23%
  (Primary Lesion) % Inhibition of Swelling Day 21: 3%
[1]; oral 100 mg./kg.
  (Primary Lesion) % Inhibition of Swelling Day 14: 36%
  (Primary Lesion) % Inhibition of Swelling Day 21: 13%
[1]; oral 200 mg./kg.
  (Primary Lesion) % Inhibition of Swelling Day 14: 48%
  (Primary Lesion) % Inhibition of Swelling Day 21: 27%
[1]; oral 400 mg./kg.
  (Primary Lesion) % Inhibition of Swelling Day 14: 73%
  (Primary Lesion) % Inhibition of Swelling Day 21: 48%

## N#CCC(=O)c1ccccc1.[Na] [Benzoylacetonitrile sodium salt, Benzoylacetonitrile, sodium salt]
[1]; oral 50 mg./kg.
  (Primary Lesion) % Inhibition of Swelling Day 14: 59%
  (Primary Lesion) % Inhibition of Swelling Day 21: 45%

## COc1ccc2c(c1)c(CC(=O)O)c(C)n2C(=O)c1ccc(Cl)cc1 [Indomethacin]
[1]; oral 0.25 mg./kg.
  (Primary Lesion) % Inhibition of Swelling Day 14: 30%
  (Primary Lesion) % Inhibition of Swelling Day 21: 4%
[1]; oral 0.5 mg./kg.
  (Primary Lesion) % Inhibition of Swelling Day 14: 40%
  (Primary Lesion) % Inhibition of Swelling Day 21: 20%
[1]; oral 1 mg./kg.
  (Primary Lesion) % Inhibition of Swelling Day 14: 46%
  (Primary Lesion) % Inhibition of Swelling Day 21: 19%
[1]; oral 2 mg./kg.
  (Primary Lesion) % Inhibition of Swelling Day 14: 51%
  (Primary Lesion) % Inhibition of Swelling Day 21: 24%
[2]
  arthritic paw swelling: inhibit arthritic paw swelling
  joint and bone deterioration: prevent joint and bone deterioration

## CCCCC1C(=O)N(c2ccccc2)N(c2ccccc2)C1=O [Phenylbutazone]
[1]; oral 18.5 mg./kg.
  (Primary Lesion) % Inhibition of Swelling Day 14: 31%
  (Primary Lesion) % Inhibition of Swelling Day 21: 7%
[1]; oral 37.5 mg./kg.
  (Primary Lesion) % Inhibition of Swelling Day 14: 56%
  (Primary Lesion) % Inhibition of Swelling Day 21: 14%
[1]; oral 75 mg./kg.
  (Primary Lesion) % Inhibition of Swelling Day 14: 62%
  (Primary Lesion) % Inhibition of Swelling Day 21: 28%
[1]; oral 150 mg./kg.
  (Primary Lesion) % Inhibition of Swelling Day 14: 75%
  (Primary Lesion) % Inhibition of Swelling Day 21: 44%

## N#CCC(=O)c1ccc(F)cc1.[Na] [p-Fluorobenzoylacetonitrile sodium salt, p-Fluorobenzoylacetonitrile, sodium salt]
[1]; oral 50 mg./kg.
  (Primary Lesion) % Inhibition of Swelling Day 14: 53%
  (Primary Lesion) % Inhibition of Swelling Day 21: 32%
